From PubChem BioAssay (NCI)
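Method: 48-hour compound exposure of cells in 96-well plates, five concentrations, linear interpolation of endpoints. Abbreviation: GI50, concentration required for 50% inhibition of growth. At the TGI there is no net growth.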

Legend:
Assay in all cases: DTP human tumour cell line panel, 48 h
KM12 colon = tested on: KM12 colon
SK-MEL-28 melanoma = tested on: SK-MEL-28 melanoma
HCC-2998 colon = tested on: HCC-2998 colon
MCF7 breast = tested on: MCF7 breast
COLO 205 colon = tested on: COLO 205 colon
U251 CNS = tested on: U251 CNS
SK-MEL-5 melanoma = tested on: SK-MEL-5 melanoma
A498 renal = tested on: A498 renal
LOX IMVI melanoma = tested on: LOX IMVI melanoma
NCI/ADR-RES ovarian = tested on: NCI/ADR-RES ovarian

Compound	GI50 (KM12 colon) [µM]	TGI (KM12 colon) [µM]	GI50 (SK-MEL-28 melanoma) [µM]	TGI (SK-MEL-28 melanoma) [µM]	GI50 (HCC-2998 colon) [µM]	TGI (HCC-2998 colon) [µM]	GI50 (MCF7 breast) [µM]	TGI (MCF7 breast) [µM]	GI50 (COLO 205 colon) [µM]	TGI (COLO 205 colon) [µM]	GI50 (U251 CNS) [µM]	TGI (U251 CNS) [µM]	GI50 (SK-MEL-5 melanoma) [µM]	TGI (SK-MEL-5 melanoma) [µM]	GI50 (A498 renal) [µM]	TGI (A498 renal) [µM]	GI50 (LOX IMVI melanoma) [µM]	TGI (LOX IMVI melanoma) [µM]	GI50 (NCI/ADR-RES ovarian) [µM]	TGI (NCI/ADR-RES ovarian) [µM]
O=C(COc1cccc(/C=C2\CSc3ccccc3C2=O)c1)Nc1nccs1	1.53	2.86	3.75	12.4	1.7	3.13	0.779	3.54	5.61	18.9	1.82	3.21	2.38	15.5	15.3	28.9	1.58	3.06	3.2	11
COC(=O)c1ccc(NC(=O)Oc2ccc(N(CCCl)CCCl)cc2)cc1	24.4	> 100	30.7	> 100	29.1	> 100	1.6	> 100	9.88	> 100	3.09	41.4	13.1	> 100	3.35	14.9	3.69	> 100	6.54	53.8
CN(CCCNC(=O)CCOCCOCCOCCNC(=O)Cc1ccc2ccc3cccc4ccc1c2c34)CCCNc1cc(-c2ccc3ccccc3c2)nc2ccccc12	0.47	1.04	0.191	0.347	0.554	1.03	0.283	0.771	0.436	0.902	0.472	0.938	0.541	1.01	1.38	2.92	0.176	0.333	4.22	10.6
CC(=O)O[C@H]1CC[C@@]2(C)C(=CC[C@@H]3C2CC[C@]2(C)Nc4nc5ccccc5cc4CC32)C1 (stereo not given in full)		12.9				10.8				20.9		7.58		15.4		18.9				
Cc1cc(N2CCN(C)CC2)n2nc(-c3ccc(Cl)cc3)nc2n1		> 100		> 100				> 100		> 100		> 100		> 100		> 100		> 100		> 100
C=CCc1cc(OC)c2c(c1)C(OC)CC(c1ccc(OC)c(OC)c1)O2 (stereo not given)		> 100		> 100		> 100				> 100		> 100		> 100		> 100		> 100		
COc1nnc2ccc(N3CCC(c4ccc(OCCN5CCN(C)C(=O)[C@H]5C)cc4)CC3)nn12	0.322	> 100	0.522	> 100	0.138	16.1	0.0234	> 100	0.0553	> 100	0.961	> 100	0.155	13.7	0.0813	3.06	0.038	4.56	0.845	> 100
CN(CC(=O)N(Cc1ccc(C2CCCCC2)cc1)c1ccc(C(=O)O)cc1)S(=O)(=O)c1c(F)c(F)c(F)c(F)c1F	2.94	9.01	1.62	3.03	1.76	3.22	1.65	3.48	1.97	3.95	1.86	3.31	1.84	3.58	2.15	7.65	1.61	3.03	2.14	5.26
CN(C)C(=S)SCC(=O)Nc1ccccc1		> 100		> 100		> 100		> 100		> 100		> 100		> 100		> 100		> 100		> 100
CC[n+]1c(/C=C/C=C2\N(C)c3ccccc3C2(C)C)sc2ccccc21	4.46	8.7	4.17	7.97	3.86	7.81	4.42	10.4	4.47	9.13	3.85	7.61	3.79	7.33	5.04	12	4	8.48	4.26	8.9
CCOC(=O)COc1ccc2c(C)cc(=O)oc2c1		> 100		> 100		> 100		> 100		> 100		> 100		> 100		> 100		> 100		> 100
COc1cccc(/C=C2\COc3ccc(-c4ccccc4)cc3C2=O)c1			1.91	3.62	2	3.95	2.05	9.17	2.18	5.06	1.56	3.05	1.67	3.55	1.89	3.52	2.02	4.62	3.63	14.5
NC(=S)c1c(N)n(C2OC(CO)C(O)C2O)c2ncnc(N)c12 (stereo not given)	0.258	9.61	0.295	1.81	0.204	0.801	0.0579		0.186	0.567	0.496	> 100	0.162	2.05	0.211	0.522			0.276	1.27
CCOc1ccc(NC(=O)CC2C(=O)Nc3ccccc3S2(=O)=O)cc1 (stereo not given)		> 100		> 100		> 100				> 100		> 100				> 100		> 100		
Cn1nc(-c2ccccc2)c2c(/C=C/c3ccccc3)onc2c1=O		> 100		> 100		> 100				> 100		> 100		> 100		> 100		> 100		
CCCCCCCCCCCC[n+]1ccc2ccccc2c1	0.397	1.51	1.47	3	1.07	2.32	0.937	2.88	1.22	2.59	0.348	1.42	0.317	1.28	2.57	8.76			9.37	35.5
CC1(c2ccc(Cl)cc2)C2C(=O)NC(=O)C1C(=O)NC2=O (stereo not given)		> 100		> 100		> 100				> 100				> 100		> 100		> 100		
Brc1ccc2ns[s+]c2c1		> 100		> 100		25.8				> 41.9		> 31.6		> 46.7		> 100		> 100		
CC(=O)OC1COC(n2c(=S)n(-c3ccccc3)c(=O)c3ccccc32)C(OC(C)=O)C1OC(C)=O (stereo not given)		> 100		> 100		> 100				> 100		> 100		> 100		> 100		> 100		

Compound	GI50 (KM12 colon) [µM]	TGI (KM12 colon) [µM]	GI50 (SK-MEL-28 melanoma) [µM]	TGI (SK-MEL-28 melanoma) [µM]	GI50 (HCC-2998 colon) [µM]	TGI (HCC-2998 colon) [µM]	GI50 (MCF7 breast) [µM]	TGI (MCF7 breast) [µM]	GI50 (COLO 205 colon) [µM]	TGI (COLO 205 colon) [µM]	GI50 (U251 CNS) [µM]	TGI (U251 CNS) [µM]	GI50 (SK-MEL-5 melanoma) [µM]	TGI (SK-MEL-5 melanoma) [µM]	GI50 (A498 renal) [µM]	TGI (A498 renal) [µM]	GI50 (LOX IMVI melanoma) [µM]	TGI (LOX IMVI melanoma) [µM]	GI50 (NCI/ADR-RES ovarian) [µM]	TGI (NCI/ADR-RES ovarian) [µM]
O=C(CC(Cl)=C(Cl)Cl)c1cccc(Cl)c1Cl	> 100	> 100	> 100	> 100			66.8	> 100	> 100	> 100	46.3	> 100	> 100	> 100	> 100	> 100	38.1	> 100	85.1	> 100
CCOC(=O)C1(C)CCCCC(=O)N1 (stereo not given)				> 100		> 100				> 100		> 100						> 100		
CC(=O)C1=C(O)C2C3c4c[nH]c5cccc(c45)CC3C(C)(C)N2C1=O (stereo not given)		> 100		> 100		63.4				> 100		> 100		27.2		98.2		67.3		
O=C1c2ccccc2C(=O)c2c(OCCOCCO)cccc21		> 100		> 100				> 100		> 100		> 100		> 100				> 100		> 100
O=C(Nc1nc2c(ncn2C2OC(CO)C(O)C2O)c(=O)[nH]1)c1ccccc1 (stereo not given)		> 100		> 100						> 100		> 100		> 100		> 100		> 100		
CCCCCCC[CH2][Sn]1([CH2]CCCCCCC)[O]C(=O)c2cccnc2[O]1	> 100	> 100	> 100	> 100	> 100	> 100			> 100	> 100	> 100	> 100	> 100	> 100	> 100	> 100	> 100	> 100		
c1ccc2c(c1)cc1n2CC2CN=NC12 (stereo not given)		> 100		> 100		> 100						> 100		> 100		> 100		> 100		
CC(SC(=O)Nc1ccc(N=Nc2ccccc2)cc1)C(=O)O (stereo not given)		> 100		> 100		> 100				> 100		> 100				> 100		> 100		
CC1=C(Nc2ccc(N3CCN(C)CC3)cc2)C(=O)c2cncnc2C1=O	10.1	30.4	17.1	43.3	17.4	36	1.92	4.19	15.8	33.1			14.4	27.6					3.09	20.3
COc1cc(CCc2ccc(N)cc2)cc(OC)c1OC		> 100		92.8		> 100				53.1		> 100		> 89.6		> 100		> 100		
COc1cc2nc3cc([N+](=O)[O-])ccc3c(NCCNCC(C)(C)O)c2cc1OC	0.698	2.97					0.372	2.04	0.37	1.54	0.533	2.31			1.83	3.63	0.715	2.51	5.68	20.5
COc1ccc(/C=C/C(=O)c2sc(-n3nc(-c4ccccc4)cc3-c3ccccc3)nc2C)cc1		> 100	> 100	> 100	> 100	> 100			> 100	> 100		> 100		> 100	> 100	> 100	> 100	> 100		
COC(=O)C=Cc1ccc2nncnc2c1 (mixture of isomers)		99		> 100				> 100		> 100		> 100		20.8		> 100		> 100		> 100
Cc1ccc(S(=O)(=O)N/N=C(/c2nc3ccc([N+](=O)[O-])cc3[nH]c2=O)C(O)c2ccc(C(O)/C(=N\NS(=O)(=O)c3ccc(C)cc3)c3nc4ccc([N+](=O)[O-])cc4[nH]c3=O)cc2)cc1 (stereo not given)		> 100		> 100		77.4				> 100		> 100		> 100		> 100		> 100		
CN(c1ccccc1)c1c(Cl)c(=O)oc2c1ccc1occc12				> 100		> 100						> 100		> 100		> 100		> 100		
CC(=O)NNc1nc(C)c(C(=O)NNC(=O)C(=O)Nc2ccc(Cl)cc2Cl)s1		> 100		> 100		> 100				> 100		82.6		> 100				> 100		
COc1cc2c(=O)[nH]c3cc([N+](=O)[O-])ccc3c2cc1[N+](=O)[O-]	4.67	> 100	> 100	> 100	19.5	> 100	0.979	> 100	4.11	> 100			4.63	> 100	2.46	> 100	3.51	> 100	5.29	> 100
CC1=C(C(=O)Nc2cc(F)c(F)cc2F)C(c2ccc([N+](=O)[O-])cc2)C(C(=O)Nc2cc(F)c(F)cc2F)=C(C)N1		> 100		> 100		60.5				> 100		> 100		> 100		87.1		> 100		
